We go through five molecules from ChEMBL document CHEMBL1201862, “PubChem BioAssay data set” (2004).

Holding throughout (test): growth of human tumour cells (NCI), 48 h
For assay [1], the system named is MOLT-4.
In assay [2] the test system is HT-29.
The test system of assay [3] is SK-OV-3.
Assay [4] deals with UACC-62.
Assay [5] deals with OVCAR-3.
Assay [6] has as its system SF-268.
In assay [7] the test system is COLO 205.
The test system of assay [8] is SK-MEL-28.
For assay [9], the system named is NCI-H23.
For assay [10], the system named is IGROV-1.
For assay [11], the system named is DMS-273.
Assay [12] has as its system Malme-3M.
Assay [13] concerns A549.
The test system of assay [14] is ACHN.
In assay [15] the test system is SN12C.
The subject of assay [16] is KM12.
The subject of assay [17] is K562.

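Where inhibition never reached the appropriate level, the endpoint shown equals the highest concentration tested. Otherwise, values were interpolated linearly from a five-concentration, 48-hour dose response in 96-well plates. GI50: concentration for 50% inhibition of growth.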 Calls of active or inactive are those of the source. Cut-off read from the data, not from the text of the source: active = GI50 up to about 1.1 µM and inactive = higher.

For `NC1CCCCC1.O=C(O)C(CP(=O)(O)O)=C(Cl)Cl`, the GI50 in [1], in [2], in [3], in [4], in assay [5] and in assay [6] was > 100 µM (inactive) each time. The GI50 in assay [7], in assay [8], in [9], in assay [10], in assay [11] and in assay [12] was > 100 µM (inactive) each time. In addition, the GI50 in assay [13], in assay [14] and in assay [15] was > 100 µM (inactive) each time.
On to `Cc1c(C(=O)C/C(=N\O)C(=O)Nc2cc(Cl)c(Cl)cc2Cl)[n+]([O-])c2ccccc2[n+]1[O-]`, for which the GI50 is 13.3 µM (inactive) in assay [1]; 15.2 µM (inactive) in assay [2]; 43.7 µM (inactive) in assay [3]; 4.57 µM (inactive) in assay [4]; 2.37 µM (inactive) in assay [5]; 17.8 µM (inactive) in [6]. Further, the GI50 in [7] was 2.92 µM (inactive); in assay [8], 22.4 µM (inactive); in assay [9], 20.9 µM (inactive); in assay [16], 11.1 µM (inactive); in [10] it was 3.71 µM (inactive); in [11] it was 17.1 µM (inactive). In addition, the GI50 in assay [12] was 9.14 µM (inactive); in assay [13], 25.6 µM (inactive); in assay [17] it was 25.9 µM (inactive); in [14], 17.5 µM (inactive); in [15] it was 4.83 µM (inactive).
Regarding `COc1cc2ccnc([C@@H](OC(=O)c3ccccc3)c3ccc(OC)c(OC)c3OC)c2cc1OC`, the GI50 in assay [1] was 41.6 µM (inactive); in assay [2], 37.7 µM (inactive); in assay [3], > 100 µM (inactive); in assay [4] it was 56.4 µM (inactive); in assay [5], 27.8 µM (inactive); in assay [6], 52 µM (inactive). The GI50 in assay [7] is 48.5 µM (inactive); in assay [8] it was 59.6 µM (inactive); in assay [9], 40.6 µM (inactive); in assay [16], 36.9 µM (inactive); in assay [10] it was > 100 µM (inactive); in [11], > 10 µM (inactive). Further, the GI50 in assay [12] was 36.2 µM (inactive); in assay [13], 47.1 µM (inactive); in [17], 26.7 µM (inactive); in assay [14], 32.7 µM (inactive); in assay [15], 51.6 µM (inactive).
For the molecule `C=CCN1C(=O)C(=O)N(CC=C)C(=O)C1=O`, the GI50 in assay [1], in assay [2], in [3], in assay [4], in assay [5] and in assay [6] was > 100 µM (inactive) each time. Moreover, the GI50 in assay [7], in assay [9], in assay [16], in assay [10], in [11] and in assay [12] was > 100 µM (inactive) throughout. Besides, the GI50 in assay [13], in assay [17] and in [15] was > 100 µM (inactive) in each case.
For the molecule `CCCCCCCCCC[C@@H](O)[C@@H]1CC[C@H]([C@H]2CC[C@@H]([C@@H](O)CCCCCCCCCC[C@H]3CC(CC(C)=O)C(=O)O3)O2)O1` (some centres undefined), the GI50 in [1] is 1.67 µM (inactive); in assay [2], 15.8 µM (inactive); in assay [3], 17.3 µM (inactive); in [4] it was 10.7 µM (inactive); in [5] it was 0.171 µM (active); in assay [6], 1.62 µM (inactive). The GI50 in [7] is 13.4 µM (inactive); in assay [8], 9.35 µM (inactive); in assay [9], < 0.01 µM (active); in [10], 12.8 µM (inactive); in [11], 10.3 µM (inactive); in assay [12] it was 3.15 µM (inactive). The GI50 in [13] is 8.77 µM (inactive); in assay [17], < 0.01 µM (active); in [15], 10.3 µM (inactive).
